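1) Cells in 96-well plates. 2) Compound, 48 h, 5 concentrations. 3) Linear interpolation between surrounding doses. 4) Unreached endpoint = highest concentration. TGI: concentration producing complete growth inhibition.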
Experiments:
Assay in all cases: DTP human tumour cell line panel, 48 h
[1] = tested on: M14 melanoma
[2] = tested on: NCI-H23 lung
[3] = tested on: SR leukemia
[4] = tested on: HS 578T breast
[5] = tested on: SK-MEL-28 melanoma
[6] = tested on: HT29 colon
[7] = tested on: ACHN renal
[8] = tested on: K-562 leukemia
[9] = tested on: SW-620 colon
[10] = tested on: U251 CNS
[11] = tested on: CAKI-1 renal
[12] = tested on: OVCAR-5 ovarian
[13] = tested on: SK-OV-3 ovarian
[14] = tested on: TK-10 renal
[15] = tested on: MDA-MB-435
[16] = tested on: RPMI-8226 leukemia
[17] = tested on: SF-268 CNS
[18] = tested on: SNB-75 CNS
[19] = tested on: HCC-2998 colon

SMILES | TGI [1] | TGI [2] | TGI [3] | TGI [4] | TGI [5] | TGI [6] | TGI [7] | TGI [8] | TGI [9] | TGI [10] | TGI [11] | TGI [12] | TGI [13] | TGI [14] | TGI [15] | TGI [16] | TGI [17] | TGI [18] | TGI [19]
CN(Cc1cnc2nc(N)nc(N)c2n1)c1ccc(C(=O)NCCS(=O)(=O)O)cc1 | > 100 µM | > 100 µM | > 100 µM | > 100 µM | > 100 µM | > 100 µM | > 100 µM | > 100 µM | > 100 µM | > 100 µM | > 100 µM | > 100 µM | > 100 µM | > 100 µM | > 100 µM | > 100 µM | > 100 µM | > 100 µM | > 100 µM
O=c1ccn([C@@H]2C[C@H]2CO)c(=O)[nH]1 | > 100 µM | > 100 µM | > 100 µM | > 100 µM | > 100 µM | > 100 µM | > 100 µM | > 100 µM | > 100 µM | > 100 µM | > 100 µM | > 100 µM |  | > 100 µM | > 100 µM | > 100 µM | > 100 µM | > 100 µM | > 100 µM
Nc1ccccc1-c1noc(=O)[nH]1 | > 100 µM | > 100 µM | > 100 µM | > 100 µM | > 100 µM | > 100 µM | > 100 µM | > 100 µM | > 100 µM | > 100 µM | > 100 µM | > 100 µM | > 100 µM | > 100 µM | > 100 µM | > 100 µM | > 100 µM | > 100 µM | > 100 µM
CC(=O)Nc1oc(C)c(C)c1S(=O)(=O)c1ccc(Cl)cc1 | > 100 µM | > 100 µM | > 100 µM | 93.6 µM | > 100 µM | > 100 µM | > 100 µM | > 100 µM | > 100 µM | > 100 µM |  | > 100 µM | > 100 µM | > 100 µM | > 100 µM | > 100 µM | > 100 µM | > 100 µM | > 100 µM
O=c1c2cccnc2n2n1Cc1ccccc1C2 |  | > 100 µM | > 100 µM | > 100 µM | > 100 µM | > 100 µM | > 100 µM | > 100 µM | > 100 µM | > 100 µM | > 100 µM | > 100 µM | > 100 µM | > 100 µM | > 100 µM | > 100 µM | > 100 µM | > 100 µM | > 100 µM
Cc1ccc(N=N/C(=N/NC(=O)c2cc(Cl)ccc2O)c2ccc(N(CCC#N)CCC#N)cc2C)cc1 | > 100 µM | 55.9 µM | > 100 µM | 46.4 µM |  | 60.6 µM | 70.4 µM | > 100 µM |  | > 100 µM | > 100 µM | > 100 µM | 74.2 µM | 87.2 µM | > 100 µM | > 100 µM | > 100 µM | 86.8 µM | 68.5 µM

— PubChem BioAssay (NCI)
